Measurements reported in patent US20080193400A1, “C-Glycoside Compounds and Use Thereof for Depigmenting the Skin” (priority 2005, published 2008).
pIC50: −log10 of the molar value.

Columns and labels:
[1] = test system: co-culture of keratinocytes and melanocytes; assay: Cytotoxicity by incorporation of leucine in a keratinocyte/melanocyte co-culture; format: cell-based; settings: estimated by incorporation of leucine
Experimental: (§1) The melanogenesis-modulating effect of the compound of Example 2 was measured according to the method described in patent FR-A-2 734 825, and also in the article by R. Schmidt, P. Krien and M. Régnier, Anal. Biochem., 235(2), 113-18, (1996). This test is performed on a co-culture of keratinocytes and melanocytes.
(§2) The following were determined for the test compound: • the cytotoxicity, by estimating the incorporation of leucine, • the inhibitory activity on melanin synthesis, by estimating the ratio of the incorporation of thiouracil to the incorporation of leucine, relative to 100% of the control (the control corresponds to the test performed without test compound). The IC50 values (the concentration for which a 50% inhibition of melanogenesis is observed) were also determined.
(§3) The test was also performed with arbutin, which is a known depigmenting compound.

[2] = test system: co-culture of keratinocytes and melanocytes; assay: Inhibition of melanin synthesis (ratio of thiouracil to leucine incorporation) in a keratinocyte/melanocyte co-culture; format: cell-based; settings: for pIC50: ratio of thiouracil to leucine incorporation relative to 100% of control, read-out: IC50 (concentration for which a 50% inhibition of melanogenesis is observed)
Experimental: as §1, §2, §3

In the case of OC[C@H]1O[C@@H](Oc2ccc(O)cc2)[C@H](O)[C@@H](O)[C@@H]1O [Arbutin, arbutin, reference compound], the Cytotoxicity [1] was “No” and the pIC50 [2] was no more than 4.00.

In the case of OC[C@H]1O[C@@H](CC(O)c2ccc(O)cc2)[C@H](O)[C@@H](O)[C@@H]1O (some centres unmarked) [Example 2], the Cytotoxicity [1] was “No”, the “Inhibition of melanogenesis (in words)” value ([2]; compared with arbutin) was “more efficient than arbutin” and the pIC50 [2] was 4.00.
